Data from US20240309018A1, “THIAZOLE-LACTAM-SPIROHETEROCYCLIC COMPOUNDS AND APPLICATIONS THEREOF” (D3 BIO (WUXI) CO., LTD, priority 2021, published 2024).

What was measured:
canine plasma albumin = test: Plasma protein binding (ultracentrifugation), canine; format: in vitro ADME; also: tested at 0.2 µM
Procedure: (§1) The binding degree of the assay compound to human/mouse/rat/canine/monkey plasma albumin was studied.
(§2) • 1) Matrix preparation: on the day of the assay, plasma was thawed in cold water and centrifuged at 3220 rpm for 5 min to remove all clots. The pH of the resulting plasma was measured and adjusted to 7.4±0.1 using 1% phosphoric acid or IN sodium hydroxide as needed. • 2) Dilution procedure for the assay compound: the assay compound was dissolved in dimethyl sulfoxide (DMSO) to prepare stock solutions with concentrations of 10 mM and 2 mM, respectively. A 40 μM working solution was prepared by diluting 2 μL of stock solution (2 mM) with 98 μL of DMSO. A 400 μM working solution of the control compound was prepared by diluting 10 μL of stock solution with 240 μL of DMSO. The working solution of the compound (5 μL) was mixed well with a blank matrix (995 μL) at a ratio of 1:200 to prepare a loading matrix.
(§3) • a) An equal volume of 30 μL of loading matrix (n=2) was transferred to a sample collection plate to prepare a time 0 (TO) sample for residue determination. The sample was immediately matched with the corresponding blank buffer to a final volume of 60 μL, and the volume ratio of plasma to buffer in each well was 1:1. […] The mixture was centrifuged at 4000 rpm for 20 min and 100 μL of supernatant from each sample was analyzed by LC-MS/MS.

[1] = In vivo PK study in beagle dogs; set-up: species or system beagle dog; conditions: male beagle dogs
Procedure: Male beagle dogs were used as assay animals. After a single administration, the plasma concentration of the compound was measured and the pharmacokinetic behavior was evaluated.
Five healthy adult male beagle dogs were selected, wherein 2 were in an intravenous injection group, and 3 were in an oral group. The vehicle in the intravenous injection group was 5% DMSO+95% (20% HP-β-CD). The compound to be assayed was mixed with an appropriate amount of vehicle for intravenous injection, and dissolved with stirring to prepare a clear solution of 0.4 mg/mL. The clear solution was filtered by a microporous membrane, and then ready for use. The vehicle in the oral group was 5% DMSO+95% (20% HP-β-CD). The compound to be assayed was mixed with the vehicle, and dissolved with stirring to prepare a solution of 0.3 mg/mL. […] were administered 1 mg/kg intravenously or 3 mg/kg orally, and then whole blood was collected for a certain period. Plasma was prepared. The drug concentration was analyzed by LC-MS/MS method, and the pharmacokinetic parameters were calculated by Phoenix WinNonlin software (Pharsight, USA).

human plasma albumin = test: Plasma protein binding (ultracentrifugation), human; format: in vitro ADME; also: tested at 0.2 µM
Procedure: as §1, §2, §3

[2] = In vivo PK study in SD rats; set-up: species or system rat; conditions: male SD rats
Procedure: Male SD rats were used as assay animals. After a single administration, the plasma concentration of the compound was measured and the pharmacokinetic behavior was evaluated.
Six healthy adult male SD rats were selected, wherein 3 rats were in an intravenous injection group and 3 rats were in an oral group. The vehicle in the intravenous injection group was 5% DMSO+95% (20% HP-β-CD). The compound to be assayed was mixed with an appropriate amount of vehicle for intravenous injection, vortexed and sonicated to prepare a clear solution of 0.2 mg/mL. The clear solution was filtered by a microporous membrane, and then ready for use. The vehicle in the oral group was 5% DMSO+95% (20% HP-β-CD). The compound to be assayed was mixed with the vehicle, vortexed and sonicated to prepare a solution of 1 mg/mL. SD rats were administered 1 mg/kg intravenously or 10 mg/kg orally, and then whole blood was collected for a certain period. Plasma was prepared. The drug concentration was analyzed by LC-MS/MS method, and the pharmacokinetic parameters were calculated by Phoenix WinNonlin software (Pharsight, USA).

HT29 tumor cells = test: In vitro cell proliferation inhibition (CellTiterGlo); format: cell-based; conditions: Homo sapiens, HT-29
Procedure: The ability of the compound to inhibit the proliferation of HT29 tumor cells was measured.
The assay compound was dissolved in 100% DMSO to prepare 10 mM stock solution.
• 1) UV light of a biological safety cabin was turned on, and 30 minutes were counted down; • 2) In a 37° C. water bath, RPMI1640 medium and trypsin were preheated; • 3) After completion of the UV irradiation, the biological safety cabin was opened. The preheated medium, trypsin and phosphate buffered saline (PBS), etc. were wiped with alcohol and placed in the biological safety cabin; • 4) HT29 cells were removed from the incubator, and the old medium was removed in biological safety cabin. 10 ml of PBS was added. The mixture was shaken gently, and then PBS was removed; • 5) 1.5 ml of preheated 0.25% trypsin was added. […] The signal value was then detected. The data were analyzed using XL-Fit, and the IC50 of each compound was calculated.

monkey plasma albumin = test: Plasma protein binding (ultracentrifugation), monkey; format: in vitro ADME; also: tested at 0.2 µM
Procedure: as §1, §2, §3

Question: With `Cc1cccc(CN2C(=O)c3nc(-c4nc(Nc5ccnn5C)ncc4C)sc3C23COC3)n1` [WX001] as the compound, how does the “Plasma protein binding rate (unbound %)” value (canine plasma albumin) read?
Answer: 14.3%

Question: What about the clearance ([1]; dog, plasma, intravenous, 1 mg/kg intravenously or 3 mg/kg orally) of the same compound?
Answer: 10.1 mL/min/kg

Question: What about the Vd ([1]; dog, plasma, intravenous, 1 mg/kg intravenously or 3 mg/kg orally, read-out: Vdss) of the same compound?
Answer: 1.29 L/kg

Question: What about the half-life ([1]; dog, plasma, 1 mg/kg intravenously or 3 mg/kg orally) of the same compound?
Answer: 3.48 h

Question: What about the bioavailability ([1]; dog, plasma, 1 mg/kg intravenously, 3 mg/kg orally, oral bioavailability) of the same compound?
Answer: 60%

Question: And the Cmax ([1]; dog, single dose, 1 mg/kg intravenously or 3 mg/kg orally, plasma)?
Answer: 1770 nM

Question: What about the “Oral DNAUC” value ([1]; 3 mg/kg orally, AUCPO/Dose) of the same compound?
Answer: 2307.32 nM · h/mpk

Question: What about the “Plasma protein binding rate (unbound %)” value (human plasma albumin) of the same compound?
Answer: 15.9%

Question: What about the “Oral DNAUC” value ([2]; 10 mg/kg orally, AUCPO/Dose) of the same compound?
Answer: 1445.79 nM · h/mpk

Question: And the clearance ([2]; rat, plasma, intravenous, 1 mg/kg intravenously or 10 mg/kg orally)?
Answer: 13.4 mL/min/kg

Question: What about the Vd ([2]; rat, plasma, intravenous, 1 mg/kg intravenously or 10 mg/kg orally, read-out: Vdss) of the same compound?
Answer: 1.08 L/kg

Question: And the half-life ([2]; rat, plasma, 1 mg/kg intravenously or 10 mg/kg orally)?
Answer: 3.77 h

Question: What about the bioavailability ([2]; rat, plasma, 1 mg/kg intravenously, 10 mg/kg orally, oral bioavailability) of the same compound?
Answer: 49%

Question: What about the Cmax ([2]; rat, single dose, 1 mg/kg intravenously or 10 mg/kg orally, plasma) of the same compound?
Answer: 2500 nM

Question: And the IC50 (HT29 tumor cells)?
Answer: 66 nM

Question: And the “Plasma protein binding rate (unbound %)” value (monkey plasma albumin)?
Answer: 14.2%
